Results as given in patent publication US11655231B2, “Etoricoxib solvates and preparation method thereof” (Tianjin University, priority 2020, dated 2023).
Converted amounts (≈) assume the structure as drawn. Read-outs that look alike come from different tables or passages of the source.

Experiments:
[1] = Solubility in aqueous solution; type: physicochemical; details: 25° C. aqueous solution
Text: Therefore, the 1,2-propanediol and DMSO solvates of etoricoxib obtained in the present disclosure both effectively improve the solubility of etoricoxib in an aqueous solution.

[2] = Onset temperature of desolvation in TG test (thermogravimetric analysis); type: physicochemical; details: TGA, heating rate 10° C./min, 25° C. to 250° C., nitrogen
[3] = Crystal size and size distribution; type: physicochemical
Procedure: (§1) The 1,2-propanediol and DMSO solvates of etoricoxib obtained in the present disclosure are rod-like and bulk crystals, respectively, as shown in FIG. 10 and FIG. 11. The etoricoxib crystal form V in the prior art has a volume-average size of 16 μm and a repose angle of 44°; and the etoricoxib hemihydrate has a volume-average size of 19 μm and a repose angle of 48°. […] Therefore, the 1,2-propanediol and DMSO solvates of etoricoxib obtained in the present disclosure are perfect crystals with smooth surfaces, which are not easy to agglomerate and have prominent flowability.

[4] = Thermal and moisture stability on storage at room/ambient temperature; type: physicochemical; details: for moisture stability (in words): ambient temperature, transformation into a hydrate; for thermal stability (in words): stored at room temperature
Procedure: The 1,2-propanediol and DMSO solvates of etoricoxib obtained in the present disclosure have a relatively high desolvation temperature. The 1,2-propanediol and the DMSO have boiling points of […] and 189° C., respectively. […] Moreover, the host-guest intermolecular interaction energies in the crystal structure of etoricoxib 1,2-propanediol and DMSO solvates are −37.22 kJ/mol and −43.37 kJ/mol respectively, which are much higher than that (−30.53 kJ/mol) in hemihydrate crystal structure. It is difficult for water molecules to enter a unit cell of the 1,2-propanediol and DMSO solvates to replace the 1,2-propanediol and DMSO molecules at an ambient temperature. […] As a result, the 1,2-propanediol and DMSO solvates of etoricoxib obtained in the present disclosure both have prominent thermal stability and moisture stability.

[5] = Repose angle (particle flowability); type: physicochemical
Procedure: as §1

[6] = prior-art hydrates, cited from earlier work
[7] = listed as 1,2-propanediol solvate of etoricoxib
[8] = listed as DMSO solvate of etoricoxib
[9] = listed as etoricoxib hemihydrate

SMILES: Cc1ccc(-c2ncc(Cl)cc2-c2ccc(S(C)(=O)=O)cc2)cn1 [1,2-propanediol solvate]
- solubility in aqueous solution [1, 7]: 527 µg/mL
- Onset temperature of desolvation in TG test [2]: 94 ± 1 °C
- Onset temperature of desolvation in TG test [2, 7]: 94 °C
- primary crystal size [3]: 100 μm
- variation coefficient of size distribution [3, 7]: 23.6%
- moisture stability (in words) [4]: prominent moisture stability
- thermal stability (in words) [4]: excellent thermal stability

SMILES: Cc1ccc(-c2ncc(Cl)cc2-c2ccc(S(C)(=O)=O)cc2)cn1 [DMSO solvate]
- solubility in aqueous solution [1, 8]: 1465 µg/mL
- Onset temperature of desolvation in TG test [2]: 66 ± 1 °C
- Onset temperature of desolvation in TG test [2, 8]: 66 °C
- volume-average size [3]: 120 μm
- variation coefficient of size distribution [3, 8]: 19.7%
- moisture stability (in words) [4]: prominent moisture stability
- thermal stability (in words) [4]: excellent thermal stability

SMILES: Cc1ccc(-c2ncc(Cl)cc2-c2ccc(S(C)(=O)=O)cc2)cn1 [EG solvate]
- Onset temperature of desolvation in TG test [2]: 96 ± 1 °C
- Onset temperature of desolvation in TG test ([2]; listed as EG solvate of etoricoxib): 96 °C

SMILES: Cc1ccc(-c2ncc(Cl)cc2-c2ccc(S(C)(=O)=O)cc2)cn1 [Formamide solvate]
- Onset temperature of desolvation in TG test ([2]; listed as formamide solvate of etoricoxib): 90 °C

SMILES: Cc1ccc(-c2ncc(Cl)cc2-c2ccc(S(C)(=O)=O)cc2)cn1 [Hemihydrate, 5-chloro-6′-methyl-3-[4-(methylsulfonyl)phenyl]-2,3′-bipyridine]
- variation coefficient of size distribution [3]: 53.6%
- volume-average size [3, 9]: 19 μm
- repose angle [5, 9]: 48 °
- onset temperature of dehydration ([6]; listed as hemihydrate): lower than 56 °C

SMILES: Cc1ccc(-c2ncc(Cl)cc2-c2ccc(S(C)(=O)=O)cc2)cn1 [Methanol solvate]
- Onset temperature of desolvation in TG test [2]: 27 ± 1 °C
- Onset temperature of desolvation in TG test ([2]; listed as methanol solvate of etoricoxib): 27 °C

SMILES: Cc1ccc(-c2ncc(Cl)cc2-c2ccc(S(C)(=O)=O)cc2)cn1 [NMP solvate]
- Onset temperature of desolvation in TG test [2]: 79 ± 1 °C
- Onset temperature of desolvation in TG test ([2]; listed as NMP solvate of etoricoxib): 79 °C

SMILES: Cc1ccc(-c2ncc(Cl)cc2-c2ccc(S(C)(=O)=O)cc2)cn1 [Sesquihydrate, 5-chloro-6′-methyl-3-[4-(methylsulfonyl)phenyl]-2,3′-bipyridine]
- onset temperature of dehydration ([6]; listed as sesquihydrate): lower than 23 °C

SMILES: Cc1ccc(-c2ncc(Cl)cc2-c2ccc(S(C)(=O)=O)cc2)cn1 [etoricoxib crystal form V, 5-chloro-6′-methyl-3-[4-(methylsulfonyl)phenyl]-2,3′-bipyridine, reference compound]
- solubility in aqueous solution [1]: 307.9 µg/mL (≈ 858 µM)
- variation coefficient of size distribution [3]: 57.2%
- volume-average size [3]: 16 μm
- repose angle [5]: 44 °
